Laboratory results reported in patent US8846710B2, “Method of preferentially inducing the biosynthesis of interferon” (3M Innovative Properties Company, priority 2005, dated 2014).

These molecules were tested on tumor necrosis factor (α) (TNF-α) (assay: Cytokine induction in human cells: TNF-α secreted by PBMC into culture media (ORIGEN M-Series immunoassay)). Conditions: Table 10; human PBMC; lowest tested concentration inducing TNF-α over usually 40 pg/mL; median where more than one experiment; read-out: Minimum Effective Concentration (μM) TNF.
Assay type: cell-based
Text: (§1) Cytokine Induction in Human Cells
(§2) An in vitro human blood cell system is used to assess cytokine induction. Activity is based on the measurement of interferon (α) and tumor necrosis factor (α) (IFN-α and TNF-α, respectively) secreted into culture media as described by Testerman et. al. in “Cytokine Induction by the Immunomodulators Imiquimod and S-27609”, Journal of Leukocyte Biology, 58, 365-372 (September, 1995).
(§3) Blood Cell Preparation for Culture
(§4) Whole blood from healthy human donors is collected by venipuncture into vacutainer tubes or syringes containing EDTA. Peripheral blood mononuclear cells (PBMC) are separated from whole blood by density gradient centrifugation using HISTOPAQUE-1077 (Sigma, St. Louis, Mo.) or Ficoll-Paque Plus (Amersham Biosciences Piscataway, N.J.). Blood is diluted 1:1 with Dulbecco's Phosphate Buffered Saline (DPBS) or Hank's Balanced Salts Solution (HBSS). Alternately, whole blood is placed in Accuspin (Sigma) or LeucoSep (Oreiner Bio-One, Inc., Longwood, Fla.) centrifuge frit tubes containing density gradient medium. The PBMC layer is collected and washed twice with DPBS or HBSS and re-suspended at 4×10^6 cells/mL in RPMI complete. The PBMC suspension is added to 96 well flat bottom sterile tissue culture plates containing an equal volume of RPMI complete media containing test compound.
(§5) The compounds are solubilized in dimethyl sulfoxide (DMSO). The DMSO concentration should not exceed a final concentration of 1% for addition to the culture wells. The compounds are generally tested at concentrations ranging from 30-0.014 μM. Controls include cell samples with media only, cell samples with DMSO only (no compound), and cell samples with reference compound.
(§6) The solution of test compound is added at 60 μM to the first well containing RPMI complete and serial 3 fold dilutions are made in the wells. The PBMC suspension is then added to the wells in an equal volume, bringing the test compound concentrations to the desired range (usually 30-0.014 μM). The final concentration of PBMC suspension is 2×10^6 cells/mL. The plates are covered with sterile plastic lids, mixed gently and then incubated for 18 to 24 hours at 37° C. in a 5% carbon dioxide atmosphere.
(§7) Following incubation the plates are centrifuged for 10 minutes at 1000 rpm (approximately 200×g) at 4° C. The cell-free culture supernatant is removed and transferred to sterile polypropylene tubes. Samples are maintained at −30 to −70° C. until analysis. The samples are analyzed for IFN-α by ELISA and for TNF-α by IGEN/BioVeris Assay.
(§8) Interferon (α) and Tumor Necrosis Factor (α) Analysis
The TNF-α concentration is determined by ORIGEN M-Series Immunoassay and read on an IGEN M-8 analyzer from BioVeris Corporation, formerly known as IGEN International, Gaithersburg, Md. The immunoassay uses a human TNF-α capture and detection antibody pair (Catalog Numbers AHC3419 and AHC3712) from Biosource International, Camarillo, Calif. Results are expressed in pg/mL.
(§9) In total, the data output of the assay consists of concentration values of TNF-α and IFN-α (y-axis) as a function of compound concentration (x-axis).
Analysis of the data has two steps. First, the greater of the mean DMSO (DMSO control wells) or the experimental background (usually 20 pg/mL for IFN-α and 40 pg/mL for TNF-α) is subtracted from each reading. If any negative values result from background subtraction, the reading is reported as “*”, and is noted as not reliably detectable. In subsequent calculations and statistics, “*”, is treated as a zero. Second, all background subtracted values are multiplied by a single adjustment ratio to decrease experiment to experiment variability. The adjustment ratio is the area of the reference compound in the new experiment divided by the expected area of the reference compound based on the past 61 experiments (unadjusted readings). […]
`CCOCc1nc2c(N)nc3cc(-c4cccnc4)ccc3c2n1CCCCNC(=O)C(C)C` [Analog 37] was tested, and the minimal effective concentration was 1.11 µM.
For `CCCc1nc2c(N)nc3cc(-c4cccnc4)ccc3c2n1CCCCNC(=O)C(C)C` [Analog 38], the minimal effective concentration was 0.37 µM.
Work on `COCCc1nc2c(N)nc3cc(-c4cccnc4)ccc3c2n1CCCN1CCCC1=O` [Analog 39] yielded a minimal effective concentration of 1.11 µM.
In the case of `COCCc1nc2c(N)nc3cc(-c4ccncc4)ccc3c2n1CCCN1CCCC1=O` [Analog 40], the minimal effective concentration was 3.33 µM.
`CCOCc1nc2c(N)nc3cc(-c4cccc(C)c4)ccc3c2n1CC(C)(C)O` [Analog 41] gave a minimal effective concentration of 0.12 µM.
`CCOCc1nc2c(N)nc3cc(-c4ccc(C)cc4)ccc3c2n1CC(C)(C)O` [Analog 42] was tested, and the minimal effective concentration was 0.12 µM.
For `CCOCc1nc2c(N)nc3cc(-c4cccc(O)c4)ccc3c2n1CC(C)(C)O` [Analog 43], the minimal effective concentration was 0.04 µM.
`CCOCc1nc2c(N)nc3cc(-c4cncc(CO)c4)ccc3c2n1CC1CCN(C(=O)C(C)C)CC1` [Analog 44] was tested, and the minimal effective concentration was 1.11 µM.
Work on `CCOCc1nc2c(N)nc3cc(-c4cncc(CO)c4)ccc3c2n1CC1CCCCC1` [Analog 45] yielded a minimal effective concentration of 1.11 µM.
`CCOCc1nc2c(N)nc3cc(-c4cccc(C(=O)N5CCOCC5)c4)ccc3c2n1CC1CCCCC1` [Analog 46] was tested, and the minimal effective concentration was 0.37 µM.

Same assay, conditions: Table 10; maximal response in dose response curve; * = below experimental background level; median
For `CCOCc1nc2c(N)nc3cc(-c4cccnc4)ccc3c2n1CCCCNC(=O)C(C)C` [Analog 37], the “Maximal Response (pg/mL) TNF” value was 728 pg/mL.
With `CCCc1nc2c(N)nc3cc(-c4cccnc4)ccc3c2n1CCCCNC(=O)C(C)C` [Analog 38] the “Maximal Response (pg/mL) TNF” value was 960 pg/mL.
`COCCc1nc2c(N)nc3cc(-c4cccnc4)ccc3c2n1CCCN1CCCC1=O` [Analog 39] was tested, and the “Maximal Response (pg/mL) TNF” value was 380 pg/mL.
For `COCCc1nc2c(N)nc3cc(-c4ccncc4)ccc3c2n1CCCN1CCCC1=O` [Analog 40], the “Maximal Response (pg/mL) TNF” value was 943 pg/mL.
With `CCOCc1nc2c(N)nc3cc(-c4cccc(C)c4)ccc3c2n1CC(C)(C)O` [Analog 41] the “Maximal Response (pg/mL) TNF” value was 10184 pg/mL.
In the case of `CCOCc1nc2c(N)nc3cc(-c4ccc(C)cc4)ccc3c2n1CC(C)(C)O` [Analog 42], the “Maximal Response (pg/mL) TNF” value was 4456 pg/mL.
With `CCOCc1nc2c(N)nc3cc(-c4cccc(O)c4)ccc3c2n1CC(C)(C)O` [Analog 43] the “Maximal Response (pg/mL) TNF” value was 3955 pg/mL.
For `CCOCc1nc2c(N)nc3cc(-c4cncc(CO)c4)ccc3c2n1CC1CCN(C(=O)C(C)C)CC1` [Analog 44], the “Maximal Response (pg/mL) TNF” value was 3128 pg/mL.
With `CCOCc1nc2c(N)nc3cc(-c4cncc(CO)c4)ccc3c2n1CC1CCCCC1` [Analog 45] the “Maximal Response (pg/mL) TNF” value was 2865 pg/mL.
With `CCOCc1nc2c(N)nc3cc(-c4cccc(C(=O)N5CCOCC5)c4)ccc3c2n1CC1CCCCC1` [Analog 46] the “Maximal Response (pg/mL) TNF” value was 1054 pg/mL.

Same assay, conditions: Table 11; human PBMC; median where tested in more than one experiment
With `COCc1nc2c(N)nc3ccccc3c2n1CC(C)(C)NS(C)(=O)=O` [Analog 47] the “Minimum Effective Concentration TNF” value was 3.33 µM.
In the case of `Cc1nc2c(N)nc3ccccc3c2n1CCCCNS(C)(=O)=O` [Analog 48], the “Minimum Effective Concentration TNF” value was 10 µM.

Same assay, conditions: Table 11; human PBMC; median; * = TNF below experimental background of 40 pg/mL
In the case of `COCc1nc2c(N)nc3ccccc3c2n1CC(C)(C)NS(C)(=O)=O` [Analog 47], the “Maximal Response TNF” value was 7151 pg/mL.
`Cc1nc2c(N)nc3ccccc3c2n1CCCCNS(C)(=O)=O` [Analog 48] was tested, and the “Maximal Response TNF” value was 526 pg/mL.

Each molecule was assayed on interferon (α) (IFN-α) (assay: Cytokine induction in human cells: IFN-α secreted by PBMC into culture media (ELISA)). Conditions: Table 10; human PBMC; lowest tested concentration inducing IFN-α over usually 20 pg/mL; median where more than one experiment; read-out: Minimum Effective Concentration (μM) IFN.
Assay type: cell-based
Text: as §1, §2, §3, §4, §5, §6, §7, §8
IFN-α concentration is determined with a human multi-subtype calorimetric sandwich ELISA (Catalog Number 41105) from PBL Biomedical Laboratories, Piscataway, N.J. Results are expressed in pg/mL.
as §9
Analysis of the data has two steps. First, the greater of the mean DMSO (DMSO control wells) or the experimental background (usually 20 pg/mL for IFN-α and 40 pg/mL for TNF-α) is subtracted from each reading. If any negative values result from background subtraction, the reading is reported as “*”, and is noted as not reliably detectable. In subsequent calculations and statistics, “*”, is treated as a zero. Second, all background subtracted values are multiplied by a single adjustment ratio to decrease experiment to experiment variability. The adjustment ratio is the area of the reference compound in the new experiment divided by the expected area of the reference compound based on the past 61 experiments (unadjusted readings). […] The reference compound used is 2-[4-amino-2-ethoxymethyl-6,7,8,9-tetrahydro-α,α-dimethyl-1H-imidazo[4,5-c]quinolin-1-yl]ethanol hydrate (U.S. Pat. No. 5,352,784; Example 91) and the expected area is the sum of the median dose values from the past 61 experiments. […]
`CCOCc1nc2c(N)nc3cc(-c4cccnc4)ccc3c2n1CCCCNC(=O)C(C)C` [Analog 37] was tested, and the minimal effective concentration was 0.12 µM.
`CCCc1nc2c(N)nc3cc(-c4cccnc4)ccc3c2n1CCCCNC(=O)C(C)C` [Analog 38] gave a minimal effective concentration of 0.12 µM.
With `COCCc1nc2c(N)nc3cc(-c4cccnc4)ccc3c2n1CCCN1CCCC1=O` [Analog 39] the minimal effective concentration was 0.12 µM.
For `COCCc1nc2c(N)nc3cc(-c4ccncc4)ccc3c2n1CCCN1CCCC1=O` [Analog 40], the minimal effective concentration was 0.37 µM.
`CCOCc1nc2c(N)nc3cc(-c4cccc(C)c4)ccc3c2n1CC(C)(C)O` [Analog 41] was tested, and the minimal effective concentration was 0.014 µM.
Molecule `CCOCc1nc2c(N)nc3cc(-c4ccc(C)cc4)ccc3c2n1CC(C)(C)O` [Analog 42] has a minimal effective concentration of 0.12 µM.
`CCOCc1nc2c(N)nc3cc(-c4cccc(O)c4)ccc3c2n1CC(C)(C)O` [Analog 43] gave a minimal effective concentration of 0.04 µM.
Molecule `CCOCc1nc2c(N)nc3cc(-c4cncc(CO)c4)ccc3c2n1CC1CCN(C(=O)C(C)C)CC1` [Analog 44] has a minimal effective concentration of 0.04 µM.
`CCOCc1nc2c(N)nc3cc(-c4cncc(CO)c4)ccc3c2n1CC1CCCCC1` [Analog 45] showed a minimal effective concentration of 0.014 µM.
Molecule `CCOCc1nc2c(N)nc3cc(-c4cccc(C(=O)N5CCOCC5)c4)ccc3c2n1CC1CCCCC1` [Analog 46] has a minimal effective concentration of 0.014 µM.

Same assay, conditions: Table 10; maximal response in dose response curve; * = below experimental background level; median
For `CCOCc1nc2c(N)nc3cc(-c4cccnc4)ccc3c2n1CCCCNC(=O)C(C)C` [Analog 37], the “Maximal Response (pg/mL) IFN” value was 1194 pg/mL.
For `CCCc1nc2c(N)nc3cc(-c4cccnc4)ccc3c2n1CCCCNC(=O)C(C)C` [Analog 38], the “Maximal Response (pg/mL) IFN” value was 1610 pg/mL.
`COCCc1nc2c(N)nc3cc(-c4cccnc4)ccc3c2n1CCCN1CCCC1=O` [Analog 39] was tested, and the “Maximal Response (pg/mL) IFN” value was 753 pg/mL.
In the case of `COCCc1nc2c(N)nc3cc(-c4ccncc4)ccc3c2n1CCCN1CCCC1=O` [Analog 40], the “Maximal Response (pg/mL) IFN” value was 1179 pg/mL.
`CCOCc1nc2c(N)nc3cc(-c4cccc(C)c4)ccc3c2n1CC(C)(C)O` [Analog 41] was tested, and the “Maximal Response (pg/mL) IFN” value was 541 pg/mL.
In the case of `CCOCc1nc2c(N)nc3cc(-c4ccc(C)cc4)ccc3c2n1CC(C)(C)O` [Analog 42], the “Maximal Response (pg/mL) IFN” value was 650 pg/mL.
In the case of `CCOCc1nc2c(N)nc3cc(-c4cccc(O)c4)ccc3c2n1CC(C)(C)O` [Analog 43], the “Maximal Response (pg/mL) IFN” value was 740 pg/mL.
For `CCOCc1nc2c(N)nc3cc(-c4cncc(CO)c4)ccc3c2n1CC1CCN(C(=O)C(C)C)CC1` [Analog 44], the “Maximal Response (pg/mL) IFN” value was 1382 pg/mL.
`CCOCc1nc2c(N)nc3cc(-c4cncc(CO)c4)ccc3c2n1CC1CCCCC1` [Analog 45] was tested, and the “Maximal Response (pg/mL) IFN” value was 1062 pg/mL.
With `CCOCc1nc2c(N)nc3cc(-c4cccc(C(=O)N5CCOCC5)c4)ccc3c2n1CC1CCCCC1` [Analog 46] the “Maximal Response (pg/mL) IFN” value was 815 pg/mL.

Same assay, conditions: Table 11; human PBMC; median where tested in more than one experiment
With `COCc1nc2c(N)nc3ccccc3c2n1CC(C)(C)NS(C)(=O)=O` [Analog 47] the “Maximal Response IFN” value was 1638 pg/mL and the “Minimum Effective Concentration IFN” value was 0.37 µM.
In the case of `Cc1nc2c(N)nc3ccccc3c2n1CCCCNS(C)(=O)=O` [Analog 48], the “Maximal Response IFN” value was 7293 pg/mL and the “Minimum Effective Concentration IFN” value was 0.12 µM.
